Source: ChEMBL document CHEMBL1146726, “Linker-modified quinoline derivatives targeting HIV-1 integrase: synthesis and biological activity” (Bioorg Med Chem Lett, 2004)

Legend:
[1] = target: Human immunodeficiency virus type 1 integrase (Human immunodeficiency virus 1, UniProt Q7ZJM1); test: In vitro inhibition of recombinant integrase activity in a standard 3'-processing assay.
[2] = tested on: Human immunodeficiency virus 1; test: Inhibition of particle production in de novo infection assay of HIV infected CEM cells.; format: functional, organism-based; settings: Human immunodeficiency virus 1, CCRF-CEM
CCRF-CEM = test: Concentration that inhibits 50% of viral particle production in de novo infection assay of CEM cells (ex vivo); Not reached; format: functional, cell-based, Homo sapiens

Human immunodeficiency virus type 1 integrase, sequence (Q7ZJM1 whole entry): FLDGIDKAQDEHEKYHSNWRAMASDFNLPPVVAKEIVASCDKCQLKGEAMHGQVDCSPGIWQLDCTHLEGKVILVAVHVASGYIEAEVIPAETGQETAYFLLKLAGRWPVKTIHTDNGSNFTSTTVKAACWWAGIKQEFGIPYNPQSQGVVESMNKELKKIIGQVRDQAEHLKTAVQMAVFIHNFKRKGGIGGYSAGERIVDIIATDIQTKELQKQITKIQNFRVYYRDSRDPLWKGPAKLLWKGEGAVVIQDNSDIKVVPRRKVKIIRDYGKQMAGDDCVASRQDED

`O=C(NCc1ccc(O)cc1O)c1ccc2ccc(C(=O)O)c(O)c2n1` was tested, and the IC50 [1] was 5 µM and the IC50 [2] was 10 µM.

For `O=C(NNc1ccccc1)c1ccc2ccc(C(=O)O)c(O)c2n1`, the IC50 [1] was > 100 µM and the IC50 [2] was 45 µM.

With `O=C(Nc1ccc(O)c(O)c1)Nc1ccc2ccc(C(=O)O)c(O)c2n1` the IC50 [1] was > 100 µM and the IC50 [2] was > 100 µM.

With `O=C(NCc1cc(O)cc(O)c1)c1ccc2ccc(C(=O)O)c(O)c2n1` the IC50 [1] was > 100 µM and the IC50 [2] was > 100 µM.

For `COc1ccc(CNC(=O)Nc2ccc3ccc(C(=O)O)c(O)c3n2)cc1`, the IC50 [1] was > 100 µM and the IC50 [2] was > 100 µM.

In the case of `O=C(NCc1ccc(O)c(O)c1)Nc1ccc2ccc(C(=O)O)c(O)c2n1`, the IC50 [1] is reported as > 100 µM and the IC50 [2] is reported as 55 µM.

`COc1cc(CNC(=O)c2ccc3ccc(C(=O)O)c(O)c3n2)cc(O)c1O` showed an IC50 [1] of 6.5 µM and an IC50 [2] of 25 µM.

In the case of `O=C(NCc1ccc(O)c(O)c1O)c1ccc2ccc(C(=O)O)c(O)c2n1`, the IC50 [1] is reported as 1.5 µM and the IC50 [2] is reported as 4 µM.

In the case of `O=C(O)c1ccc2ccc(/C=C/c3ccc(O)c(O)c3)nc2c1O`, the IC50 [2] is reported as 1 µM.

With `O=C(NNc1ccc([N+](=O)[O-])cc1[N+](=O)[O-])c1ccc2ccc(C(=O)O)c(O)c2n1` the IC50 [1] was 3 µM and the IC50 [2] was > 100 µM.

`O=C(Nc1ccc(O)c(O)c1)c1ccc2ccc(C(=O)O)c(O)c2n1` gave an IC50 [1] of 0.9 µM and an IC50 [2] of 30 µM.

Work on `O=C(NCc1ccc(O)c(O)c1)c1ccc2ccc(C(=O)O)c(O)c2n1` yielded an IC50 [1] of 5 µM and an IC50 [2] of 2 µM.

Work on `O=C(NCc1cccc(O)c1O)c1ccc2ccc(C(=O)O)c(O)c2n1` yielded an IC50 [1] of 5 µM and an IC50 [2] of 40 µM.

`O=C(O)c1ccc2ccc(CCc3ccc(O)c(O)c3)nc2c1O` was tested, and the IC50 (CCRF-CEM) was “Not reached”.

In the case of `O=C(/C=C(\O)c1ccccc1)c1ccc2ccc(C(=O)O)c(O)c2n1`, the IC50 [1] is reported as 30 µM and the IC50 [2] is reported as > 100 µM.

For `O=C(O)c1ccc2ccc(/C=C/c3cc(O)cc(O)c3)nc2c1O`, the IC50 [2] was > 100 µM.

`O=C(Nc1ccc2ccc(C(=O)O)c(O)c2n1)c1ccccc1` was tested, and the IC50 [1] was > 100 µM and the IC50 [2] was > 100 µM.

With `COc1cc(NC(=O)c2ccc3ccc(C(=O)O)c(O)c3n2)cc(O)c1O` the IC50 [1] was 6.5 µM and the IC50 [2] was 2 µM.
